Earlier results, collected in patent publication US20140220080A1, “IgA SECRETION PROMOTER” (MATSUTANI CHEMICAL INDUSTRY CO., LTD., priority 2013, published 2014).

Test system: IgA
Conditions: Patent Literature 1, 2; Non-Patent Literature 1-3

## OC[C@H]1O[C@@H](O[C@H]2[C@H](O)[C@@H](O)[C@@H](O[C@]3(CO)O[C@H](CO)[C@@H](O)[C@@H]3O)O[C@@H]2CO)[C@H](O)[C@@H](O)[C@H]1O [lactosucrose]
  action of promoting IgA secretion: have an action of promoting IgA secretion
